# Laboratory results taken from ChEMBL document CHEMBL1201862, “PubChem BioAssay data set” (2004).
#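 Following 48 hours of exposure in 96-well plates, responses at five concentrations were used to interpolate endpoints linearly. At the GI50, growth is halved.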 Calls of active or inactive are those of the source. No stated cut-off is given here; in the data, active = GI50 up to about 1.1 µM and inactive = higher.
# What was measured:
# Experiment in all cases: NCI anticancer screen, dose series, 48 h
# IGROV-1 = system: IGROV-1
# LXFL 529 = system: LXFL 529
# NCI-H460 = system: NCI-H460
# SNB-78 = system: SNB-78
# A498 = system: A498
# HCT-116 = system: HCT-116
# KM12 = system: KM12
# DMS-114 = system: DMS-114
# UO-31 = system: UO-31
# OVCAR-8 = system: OVCAR-8
# M14 = system: M14
# DLD-1 = system: DLD-1
# SNB-19 = system: SNB-19
# HCT-15 = system: HCT-15
# HOP-18 = system: HOP-18
# NCI-H23 = system: NCI-H23
# HT-29 = system: HT-29
# A549 = system: A549
# SF-268 = system: SF-268
# SF-295 = system: SF-295
# OVCAR-5 = system: OVCAR-5
# MOLT-4 = system: MOLT-4
# KM-20L2 = system: KM-20L2
# SK-MEL-5 = system: SK-MEL-5
# HOP-92 = system: HOP-92
# HCC 2998 = system: HCC 2998
# HL-60 = system: HL-60
# SW-620 = system: SW-620
# 786-0 = system: 786-0
# ACHN = system: ACHN
# RXF 631 = system: RXF 631
# UACC-62 = system: UACC-62
# RXF 393 = system: RXF 393
# HOP-62 = system: HOP-62
# NCI-H522 = system: NCI-H522
# RPMI-8226 = system: RPMI-8226
# M19-MEL = system: M19-MEL
# K562 = system: K562
# SF-539 = system: SF-539
# Malme-3M = system: Malme-3M
# SN12C = system: SN12C
# UACC-257 = system: UACC-257
# EKVX = system: EKVX
# COLO 205 = system: COLO 205
# SK-MEL-2 = system: SK-MEL-2
# U-251 = system: U-251
# CCRF-CEM = system: CCRF-CEM
# TK-10 = system: TK-10
# SK-MEL-28 = system: SK-MEL-28
# CAKI-1 = system: CAKI-1
# LOX IMVI = system: LOX IMVI
# MDA-MB-231 = system: MDA-MB-231
# BT-549 = system: BT-549
# DU-145 = system: DU-145
# SK-OV-3 = system: SK-OV-3
# OVCAR-3 = system: OVCAR-3
# T47D = system: T47D
# MDA-N = system: MDA-N
# PC-3 = system: PC-3
# XF498 = system: XF498
# DMS-273 = system: DMS-273
# NCI-H226 = system: NCI-H226
# MCF7 = system: MCF7
# NCI/ADR-RES = system: NCI/ADR-RES
# Hs-578T = system: Hs-578T
# OVCAR-4 = system: OVCAR-4
# SR = system: SR
# MDA-MB-435 = system: MDA-MB-435
compound,measurement,setting,value
CC1=N/C(=C\c2cccc3ccccc23)C(=O)O1,GI50,IGROV-1,> 100 µM (inactive)
same,GI50,LXFL 529,> 100 µM (inactive)
same,GI50,NCI-H460,> 100 µM (inactive)
same,GI50,SNB-78,> 100 µM (inactive)
same,GI50,A498,> 100 µM (inactive)
same,GI50,HCT-116,> 100 µM (inactive)
same,GI50,KM12,> 100 µM (inactive)
same,GI50,DMS-114,> 100 µM (inactive)
same,GI50,UO-31,> 100 µM (inactive)
same,GI50,OVCAR-8,> 100 µM (inactive)
same,GI50,M14,> 100 µM (inactive)
same,GI50,DLD-1,> 100 µM (inactive)
same,GI50,SNB-19,> 100 µM (inactive)
same,GI50,HCT-15,> 100 µM
same,GI50,HOP-18,10.6 µM (inactive)
same,GI50,NCI-H23,> 100 µM (inactive)
same,GI50,HT-29,> 100 µM (inactive)
same,GI50,A549,> 100 µM (inactive)
same,GI50,SF-268,> 100 µM (inactive)
same,GI50,SF-295,> 100 µM (inactive)
same,GI50,OVCAR-5,> 100 µM (inactive)
same,GI50,MOLT-4,> 100 µM (inactive)
same,GI50,KM-20L2,> 100 µM (inactive)
same,GI50,SK-MEL-5,> 100 µM (inactive)
same,GI50,HOP-92,> 100 µM (inactive)
same,GI50,HCC 2998,> 100 µM (inactive)
same,GI50,HL-60,> 100 µM (inactive)
same,GI50,SW-620,> 100 µM (inactive)
same,GI50,786-0,> 100 µM (inactive)
same,GI50,ACHN,> 100 µM (inactive)
same,GI50,RXF 631,> 100 µM (inactive)
same,GI50,UACC-62,> 100 µM (inactive)
same,GI50,RXF 393,> 100 µM (inactive)
same,GI50,HOP-62,> 100 µM (inactive)
same,GI50,NCI-H522,> 100 µM (inactive)
same,GI50,RPMI-8226,> 100 µM (inactive)
same,GI50,M19-MEL,> 100 µM (inactive)
same,GI50,K562,> 100 µM (inactive)
same,GI50,SF-539,> 100 µM (inactive)
same,GI50,Malme-3M,> 100 µM (inactive)
same,GI50,SN12C,> 100 µM (inactive)
same,GI50,UACC-257,> 100 µM (inactive)
same,GI50,EKVX,> 100 µM (inactive)
same,GI50,COLO 205,> 100 µM (inactive)
same,GI50,SK-MEL-2,> 100 µM (inactive)
same,GI50,U-251,> 100 µM (inactive)
same,GI50,CCRF-CEM,> 100 µM (inactive)
same,GI50,TK-10,> 100 µM (inactive)
same,GI50,SK-MEL-28,> 100 µM (inactive)
O=C(CSc1ncnc2[nH]cnc12)c1ccccc1,GI50,IGROV-1,> 100 µM (inactive)
same,GI50,LXFL 529,> 100 µM (inactive)
same,GI50,NCI-H460,> 100 µM (inactive)
same,GI50,SNB-78,> 100 µM (inactive)
same,GI50,CAKI-1,75.2 µM (inactive)
same,GI50,A498,> 100 µM (inactive)
same,GI50,HCT-116,> 100 µM (inactive)
same,GI50,KM12,> 41.1 µM (inactive)
same,GI50,DMS-114,> 100 µM (inactive)
same,GI50,UO-31,> 95.7 µM (inactive)
same,GI50,OVCAR-8,> 100 µM (inactive)
same,GI50,M14,> 88.3 µM (inactive)
same,GI50,DLD-1,> 100 µM (inactive)
same,GI50,SNB-19,> 100 µM (inactive)
same,GI50,LOX IMVI,79.4 µM (inactive)
same,GI50,HCT-15,> 100 µM
same,GI50,HOP-18,> 100 µM (inactive)
same,GI50,MDA-MB-231,> 100 µM (inactive)
same,GI50,NCI-H23,> 100 µM (inactive)
same,GI50,HT-29,> 100 µM (inactive)
same,GI50,BT-549,> 100 µM (inactive)
same,GI50,DU-145,> 100 µM (inactive)
same,GI50,SK-OV-3,> 100 µM (inactive)
same,GI50,OVCAR-3,> 100 µM (inactive)
same,GI50,T47D,> 100 µM (inactive)
same,GI50,A549,> 100 µM (inactive)
same,GI50,MDA-N,86.3 µM (inactive)
same,GI50,PC-3,> 100 µM (inactive)
same,GI50,SF-268,> 100 µM (inactive)
same,GI50,XF498,> 100 µM (inactive)
same,GI50,DMS-273,> 100 µM (inactive)
same,GI50,SF-295,> 100 µM (inactive)
same,GI50,OVCAR-5,> 57.1 µM (inactive)
same,GI50,MOLT-4,> 65.6 µM (inactive)
same,GI50,KM-20L2,> 100 µM (inactive)
same,GI50,SK-MEL-5,86.3 µM (inactive)
same,GI50,HOP-92,50.2 µM (inactive)
same,GI50,HL-60,> 100 µM (inactive)
same,GI50,SW-620,> 100 µM (inactive)
same,GI50,786-0,> 100 µM (inactive)
same,GI50,ACHN,> 100 µM (inactive)
same,GI50,NCI-H226,> 100 µM (inactive)
same,GI50,MCF7,> 100 µM (inactive)
same,GI50,UACC-62,> 100 µM (inactive)
same,GI50,NCI/ADR-RES,96.4 µM (inactive)
same,GI50,RXF 393,> 76.2 µM (inactive)
same,GI50,Hs-578T,> 100 µM (inactive)
same,GI50,HOP-62,> 100 µM (inactive)
same,GI50,NCI-H522,47.4 µM (inactive)
same,GI50,RPMI-8226,> 64.3 µM (inactive)
same,GI50,OVCAR-4,> 48 µM (inactive)
same,GI50,M19-MEL,> 100 µM (inactive)
same,GI50,K562,41.3 µM (inactive)
same,GI50,SF-539,> 100 µM (inactive)
same,GI50,Malme-3M,> 100 µM (inactive)
same,GI50,SN12C,> 100 µM (inactive)
same,GI50,UACC-257,> 100 µM (inactive)
same,GI50,EKVX,> 100 µM (inactive)
same,GI50,COLO 205,> 91 µM (inactive)
same,GI50,SR,92.5 µM (inactive)
same,GI50,SK-MEL-2,> 43.2 µM (inactive)
same,GI50,U-251,> 100 µM (inactive)
same,GI50,CCRF-CEM,> 65.8 µM (inactive)
same,GI50,TK-10,> 66.7 µM (inactive)
same,GI50,MDA-MB-435,> 100 µM (inactive)
same,GI50,SK-MEL-28,> 100 µM (inactive)
